These are literature values, as cited in US10010080B2, “Process for the production of partially polymerized antimicrobial silanol quaternary ammonium compounds” (Indusco, Ltd., priority 2015, dated 2018).

For this data set the following is noted: Dow Corning material safety data sheet.

Molecules are shown by their SMILES.

Regarding `CO[Si](CCCCl)(OC)OC` [CPTMS, chloropropyptrimethoxy silane], the “time weighted average (TWA) for human exposure” value is on record as 0.1 part per million.
